According to patent publication US10807969B2, “Meglumine salt formulations of 1-(5,6-dichloro-1h-benzo[d]imidazol-2-yl)-1h-pyrazole-4-carboxylic acid” (Janssen Pharmaceutica NV, priority 2011, dated 2020):

Experiment: Moisture uptake (adsorption/desorption vs relative humidity)
Type: physicochemical
Conditions: for Desorption (90-0% RH): moisture loss; for Adsorption (40-90% RH): moisture uptake
Source text: The thermal properties, crystalline nature, apparent purity and moisture uptake of a 6.0 g batch of the free acid of compound (1) are summarized in Table 1.
Two broad endothermic peaks of the potassium salt of compound (1) were seen by DSC that can be associated with a dehydration event and melt/decomposition, respectively (Table 2).

| Structure (SMILES) | Desorption (90-0% RH) [%] | Adsorption (40-90% RH) | Hygroscopicity (salt prepared by re-slurry methodology) |
| --- | --- | --- | --- |
| O=C(O)c1cnn(-c2nc3cc(Cl)c(Cl)cc3[nH]2)c1 [free acid of compound (1), 1-(5,6-Dichloro-1H-benzoimidazol-2-yl)-1H-pyrazole-4-carboxylic acid] | −0.96 | +0.59% |  |
| O=C([O-])c1cnn(-c2nc3cc(Cl)c(Cl)cc3[nH]2)c1.[K+] [potassium salt of compound (1), potassium salt of 1-(5,6-dichloro-1H-benzoimidazol-2-yl)-1H-pyrazole-4-carboxylic acid] | −0.89 | +0.53% | non-hygroscopic |
